Laboratory results taken from patent US20040266885A1, “Wood preservative compositions” (priority 2001, published 2004).
Several values for one entry are separate records, joined by “and”; a condition that tells them apart may be missing. Identical values can stand only once. Entries after “also recorded” stand apart in the source; their conditions may differ.

Tested on: C. formosanus
Assay: Laboratory termite test, modified ASTM 3345-74, soil/sand culture, NaOH carrier, blocks not leached; for Termite Attack Rating: key: Score 0: No attack; Score 1: Attempted attack; Score 2: Slight attack; Score 3: Average attack; Score 4: Strong attack
Format: in vivo
Settings: for termite survival / mortality at the end of the test period / Tunneling Activity / Visible Mortality / prevention of termite attack / restriction of termite damage: 4 weeks; for prevention of termite attack / restriction of termite damage: all concentrations used (1-10%); for Mean Rating (termite attack): mean of 4 specimens; for Mean Rating (termite attack) / Termite Attack Rating: 4 weeks soil/sand culture; for Termite Attack Rating: single specimen; for repellent effect (soil covering of test specimens): specimens treated with 5, 7 and 10% solutions only partially soil covered
Protocol: A further experiment was undertaken according to the modified ASTM 3345-74 test detailed in Example 2 with the following 6 changes to the protocol:
1. The solutions tested were as follows:
2. The incubation substrate was a soil/sand mixture (1:1) to which had been added 75 ml of de-ionised water. This substrate was chosen as being more representative of the laboratory conditions under which the wild caught termites (C. formosanus) were maintained.
3. The treated timber samples were positioned on plastic mesh on top of the soil substrate. This method of placement is that used in European Standard EN 117 and is more representative of the feeding conditions of the wild caught termites maintained in the laboratory.
4. 250 termites were used in each incubation vessel.
5. The wood block specimens were not subjected to a leaching process.
6. Evidence of termite tunneling activity and mortality was determined at completion of the incubation period only (4 weeks) and no examinations were undertaken for surface activity.

| SMILES | termiticidal and termite repellent activity (conclusion) | termite survival / mortality at the end of the test period | Tunneling Activity (solution conc. 1%) | Visible Mortality (solution conc. 1%) | Tunneling Activity (solution conc. 3%) | Visible Mortality (solution conc. 3%) | Tunneling Activity (solution conc. 5%) | Visible Mortality (solution conc. 5%) | Tunneling Activity (solution conc. 7%) | Visible Mortality (solution conc. 7%) | Tunneling Activity (solution conc. 10%) | Visible Mortality (solution conc. 10%) | prevention of termite attack / restriction of termite damage | Mean Rating (termite attack) (solution conc. 1%) | Termite Attack Rating (solution conc. 1%) | Mean Rating (termite attack) (solution conc. 3%) | Termite Attack Rating (solution conc. 3%) | Mean Rating (termite attack) (solution conc. 5%) | Termite Attack Rating (solution conc. 5%) | Mean Rating (termite attack) (solution conc. 7%) | also measured |
| --- | --- | --- | --- | --- | --- | --- | --- | --- | --- | --- | --- | --- | --- | --- | --- | --- | --- | --- | --- | --- | --- |
| O=S(=O)(c1cc(Br)c(O)c(Br)c1)c1cc(Br)c(O)c(Br)c1 [TBBS] | significant termiticidal and termite repellent activity | significant termite mortality by the end of the test period | Yes | 67-100% | Yes | 34-66% and 67-100% | Yes | 67-100% | Yes | 67-100% and 100% | Yes | 34-66% and 67-100% | significant attack was prevented by all concentrations; also recorded: a very significant effect in restricting termite damage | 1.00 | 1 | 0.5 | 1 and 0 | 1.00 | 1 | 0.75 | Termite Attack Rating (solution conc. 7%): 1 and 0; Mean Rating (termite attack) (solution conc. 10%): 0.25; Termite Attack Rating (solution conc. 10%): 0 and 1; repellent effect (soil covering of test specimens): a repellent effect was noted |
| Oc1c(Br)cc(Cc2cc(Br)c(O)c(Br)c2)cc1Br [TBBF] | significant termiticidal and termite repellent activity | the majority of the termites were killed by the end of the test period | Yes | 34-66% | Yes | 34-66% | Yes | 67-100% | Yes | 67-100% | Yes | 67-100% | significant attack was prevented by all concentrations; also recorded: a very significant effect in restricting termite damage | 1.50 | 3 and 1 | 0.75 | 0 and 1 | 0.5 | 0 and 1 | 0.75 | toxic value, lower (concentration at which the wood is no longer sufficiently protected) (mean loading, solution concentration 1%, not leached): 6.78 kg/m^3; toxic value, upper (lowest concentration which protects the wood) (mean loading, solution concentration 3% (TBBF) or 1%, not leached): 20.53 kg/m^3; Termite Attack Rating (solution conc. 7%): 1 and 0; Mean Rating (termite attack) (solution conc. 10%): 0.5; Termite Attack Rating (solution conc. 10%): 1 and 0; repellent effect (soil covering of test specimens): a repellent effect |
